Data reported in patent US20070259928A1, “Medicinal Composition for Treating Diabetes” (priority 2004, published 2007).

What was measured:
[1] = test system: Zucker diabetic fatty (ZDF) rats; experiment: Test Example 1: glycosylated hemoglobin ratio after 6 weeks of repeated, timed administration of Compound A and metformin; format: in vivo, rat; details: for glycosylated hemoglobin ratio vs control group: 100-150 mg/kg each once daily
Description: Eleven-week old Zucker diabetic fatty (ZDF) rats, that spontaneously developed diabetes mellitus, were grouped into 3 groups (7 rats per group). Feeding was limited to from 17:00 to 9:00, and Compound A and metformin (purchased from Sigma Chemical Co., Ltd.) were repeatedly administered for 6 weeks. Doses of Compound A and metformin were 100-150 mg/kg each once daily, and administered at 9:00 AM (9:00) or 4:00 PM (16:00). In the group administered Compound A at 9:00 AM, metformin was administered at 4:00 PM (AM-Compound A/PM-metformin administered group; Group A), and in the group administered metformin at 9:00 AM, Compound-A was administered at 4:00 PM (AM-metformin/PM-Compound A administered group; Group B). The dose of each compound per day in both groups was fixed at the same. Vehicle alone was administered to the remaining group (control group) twice a day. After repeated administration of the compounds for 6 weeks, blood sample was collected from the tail vein of each rat, and ratios of glycosylated hemoglobin levels in erythrocytes were determined by DCA2000 manufactured by Bayer Medical Ltd. Glycosylated hemoglobin is non-enzymatically formed by binding of glucose to hemoglobin, and the ratio of glycosylated hemoglobin is increased by sustained hyperglycemia. Thus the glycosylated hemoglobin ratio is widely used as an indicator of a long-term therapy (or control of blood glucose levels) in patients with diabetes mellitus. The average and standard error of the glycosylated hemoglobin ratio determined in each group were calculated and are shown in FIG. 1.

Goto-Kakizaki (GK) rats = experiment: Test Example 2: blood glucose lowering rate 4 hours after oral Compound A in fasted and non-fasted rats; format: in vivo, rat; details: 30 mg/kg oral
Description: Thirty-six-week old Goto-Kakizaki (GK) rats (purchased from Charles River Japan, Inc.), that spontaneously developed diabetes mellitus, were grouped into 4 groups such as “non-fasting control group”, “non-fasting and Compound A administered group”, “fasting control group”, and “fasting and Compound A administered group” (6 rats per group).
In Compound A administered groups, Compound A (30 mg/kg) was orally administered, and vehicle alone was administered to two control groups. In addition, rats in two fasting groups were fasted from one day before oral administration of Compound A, and rats in two non-fasting groups were fasted immediately after Compound A was administered [the rats were allowed to take food pellets (FR2, manufactured by Funabashi Farm Co., Ltd.) ad libitum until fasting was started]. Blood sample was collected from the tail vein immediately before and 4 hours after oral administration of Compound A. Blood glucose level was determined by electric potential measurement method based on glucose oxidase immobilized electrode using Glucoloader GXT (A&T Corp.). The blood glucose lowering rate (%) at 4 hours after administration of Compound A against the blood glucose level before administration was calculated in individual rats according to the following equation, and the average blood glucose lowering rate and its standard error in each group are summarized in FIG. 2. [Blood glucose lowering rate(%)]=100×([…])/[blood glucose level before administration]

CCOC(=O)[C@H](C)NP(=O)(N[C@@H](C)C(=O)OCC)c1ccc(-c2nc(N)sc2CC(C)C)o1 [Compound A, 2-amino-5-isobutyl-4-{2-[5-(N,N′-bis((S)-1-ethoxycarbonyl)ethyl)phosphonamido]furanyl}thiazole]
glycosylated hemoglobin ratio, Group B vs Group A ([1]; AM-metformin/PM-Compound A compared with AM-Compound A/PM-metformin, same daily doses, p=0.0330, Tukey test): improved diabetes mellitus more remarkably | glycosylated hemoglobin ratio vs control group ([1]; Group A: Compound A at 9:00 AM, metformin at 4:00 PM, p=0.0749, Tukey test): not significantly different from that in the control group | glycosylated hemoglobin ratio vs control group ([1]; Group B: metformin at 9:00 AM, Compound A at 4:00 PM, p=0.0002, Tukey test): significantly lower than that in the control group | blood glucose lowering rate at 4 hours after administration vs corresponding control group (Goto-Kakizaki (GK) rats; GK rats fasted from one day before dosing, p=0.0236, t-test): significantly reduced | blood glucose lowering rate at 4 hours, fasting group vs non-fasting group (Goto-Kakizaki (GK) rats; GK rats, both groups given Compound A, p=0.0158, t-test): significantly lower | blood glucose lowering rate at 4 hours after administration vs corresponding control group (Goto-Kakizaki (GK) rats; non-fasting GK rats, p=0.0196, t-test): significantly reduced
